Molecules are shown by their SMILES.

`CCNC(=O)c1cc(Oc2ccc(NC(=O)Nc3cc(C(F)(F)F)ccc3OC)cc2)ccn1` [Entry 19, ({4-[2-(N-ethylcarbamoyl)(4-pyridyloxy)]phenyl}amino)-N-[2-methoxy-5-(trifluoromethyl)phenyl]carboxamide] displayed a melting point of 194 to 196 °C.

The molecule `CNC(=O)c1cc(Oc2ccc(NC(=O)Nc3cc(C(F)(F)F)ccc3OC)c(C)c2)ccn1` [Entry 16, {4-[4-({N-[2-methoxy-5-(trifluoromethyl)phenyl]carbamoyl}amino)-3-methylphenoxy](2-pyridyl)}-N-methylcarboxamide] came in with a melting point of 210 to 213 °C. For `COc1ccc(C(F)(F)F)cc1NC(=O)Nc1ccc(Oc2ccnc(C(N)=O)c2)cc1` [Entry 14, 4-[4-({N-[2-methoxy-5-(trifluoromethyl)phenyl]carbamoyl}amino)phenoxy]pyridine-2-carboxamide], the melting point is 114 to 117 °C. The molecule `CCNC(=O)c1cc(Oc2ccc(NC(=O)Nc3cc(C(F)(F)F)c(Cl)cc3OC)cc2)ccn1` [Entry 99, N-[4-chloro-2-methoxy-5-(trifluoromethyl)phenyl]({4-[2-(N-ethylcarbamoyl)(4-pyridyloxy)]phenyl}amino)carboxamide] came in with a melting point of 180 to 181 °C. On to `CCNC(=O)c1cc(Oc2ccc(NC(=O)Nc3ccc(Br)c(C(F)(F)F)c3)cc2)ccn1` [Entry 88, N-[4-bromo-3-(trifluoromethyl)phenyl]({4-[2-(N-ethylcarbamoyl)(4-pyridyloxy)]phenyl}amino)carboxamide], for which the melting point is 183 to 184 °C.

`CNC(=O)c1cc(Oc2ccc(NC(=O)Nc3ccc(Cl)c(C(F)(F)F)c3)c(Cl)c2)ccn1` [Entry 49, {4-[3-chloro-4-({[4-chloro-3-(trifluoromethyl)phenyl]amino}carbonylamino)phenoxy](2-pyridyl)}-N-methylcarboxamide] gave a melting point of 147 to 151 °C. Take `CNC(=O)c1cc(Oc2ccc(NC(=O)Nc3cc(C(F)(F)F)c(Cl)cc3OC)c(Cl)c2)ccn1` [Entry 96, N-[4-chloro-2-methoxy-5-(trifluoromethyl)phenyl]({2-chloro-4-[2-(N-methylcarbamoyl)(4-pyridyloxy)]phenyl}amino)carboxamide]: the melting point was in the range of 244 to 245 °C. In the case of `CCNC(=O)c1cc(Oc2ccc(NC(=O)Nc3ccc(Cl)c(C(F)(F)F)c3)cc2)ccn1` [Entry 51, N-[4-chloro-3-(trifluoromethyl)phenyl]({4-[2-(N-ethylcarbamoyl)(4-pyridyloxy)]phenyl}amino)carboxamide], the melting point was in the range of 187 to 189 °C. With `CNC(=O)c1cc(Oc2ccc(NC(=O)Nc3cc(C(F)(F)F)ccc3OC)c(Cl)c2)ccn1` [Entry 17, ({2-chloro-4-[2-(N-methylcarbamoyl)(4-pyridyloxy)]phenyl}amino)-N-[2-methoxy-5-(trifluoromethyl)phenyl]carboxamide], the melting point fell in the range of 187 to 188 °C.

For `CNC(=O)c1cc(Oc2ccc(NC(=O)Nc3cc(C(F)(F)F)c(Cl)cc3OC)cc2)ccn1` [Entry 95, N-[4-chloro-2-methoxy-5-(trifluoromethyl)phenyl]({4-[2-(N-methylcarbamoyl)(4-pyridyloxy)]phenyl}amino)carboxamide], the melting point is 140 to 144 °C. `CNC(=O)c1cc(Oc2ccc(NC(=O)Nc3ccc(Br)c(C(F)(F)F)c3)cc2Cl)ccn1` [Entry 87, {4-[4-({[4-bromo-3-(trifluoromethyl)phenyl]amino}carbonylamino)-2-chlorophenoxy](2-pyridyl)}-N-methylcarboxamide] came in with a melting point of 217 to 219 °C. The figure for `CNC(=O)c1cc(Sc2ccc(NC(=O)Nc3cc(C(F)(F)F)ccc3OC)cc2)ccn1` [Entry 27, N-[2-methoxy-5-(trifluoromethyl)phenyl]({4-[2-(N-methylcarbamoyl)(4-pyridylthio)]phenyl}amino)carboxamide] is 218 to 219 °C; for `CNC(=O)c1cc(Oc2ccc(NC(=O)Nc3cc(C(F)(F)F)ccc3OC)cc2Cl)ccn1` [Entry 20, ({3-chloro-4-[2-(N-methylcarbamoyl)(4-pyridyloxy)]phenyl}amino)-N-[2-methoxy-5-(trifluoromethyl)phenyl]carboxamide] it is 214 to 216 °C; for `CNC(=O)c1cc(Oc2ccc(NC(=O)Nc3cc(C(F)(F)F)c(Cl)cc3OC)cc2Cl)ccn1` [Entry 97, N-[4-chloro-2-methoxy-5-(trifluoromethyl)phenyl]({3-chloro-4-[2-(N-methylcarbamoyl)(4-pyridyloxy)]phenyl}amino)carboxamide] it is 220 to 221 °C.

A word on the melting point: it is the temperature of the solid-liquid transition.

Values taken from patent publication US20090068146A1, “DIARYL UREAS AND COMBINATIONS” (priority 2005, published 2009).
